Measurements from patent US20250368667A1, “USP1 INHIBITOR” (Shanghai Qilu Pharmaceutical Research and Development …, priority 2022, published 2025).

What was measured:
[1] = Pharmacokinetic determination in male CD1 mice; assay type: in vivo; conditions: PO 10 mg/kg, plasma
Protocol: Test Example 3 Pharmacokinetic Determination of the Compound of the Present Application in Male CD1 Mice
Male CD1 mice were used as test animals. After intravenous injection and oral administration, plasma samples were collected at specific time points. The concentration of the compound in plasma was detected by LC-MS/MS, and the parameters of drug metabolism and pharmacokinetics (DMPK) were calculated to evaluate the pharmacokinetic characteristics of the compounds in plasma of mice.
Compounds of Table 5 in this application; the structural formula and preparation method of compound 88 are shown in the above examples. The structural formula of comparative compound 1 is: […]
Male CD1 mice having a weight of between 20 g and 30 g; supplied by Vital River.
Administration of the compound in this application: both group IV (intravenous injection group) and group PO (oral administration group) consist of 3 mice; for group IV, the dosage is 1 mg/kg and the administration volume is 5 mL/kg; and for group PO, the dosage is 10 mg/kg and the administration volume is 10 mL/kg. The administration solvent was 5 vol % DMSO+10 vol % Soltol (Kolliphor HS 15)+85 vol % Saline (physiological saline).
• 0.02 to 0.03 mL of blood was collected from the saphenous vein in group IV at 0.083, 0.25, 0.5, 1, 2, 4, 8 and 24 hours after administration and from the saphenous vein in group PO at 0.25, 0.5, 1, 2, 4, 8 and 24 hours after administration. The collected samples were placed in EDTA-K2 test tube; plasma was separated by centrifuging at 4° C. for […], which was then stored at −80° C. until analysis of the samples.
(§1) Mice plasma samples were treated by: • 1) adding 200 μL acetonitrile to 10 μL plasma sample for precipitation, vortex mixing the mixture for 30 seconds and centrifuging at 4° C. and 3900 rpm for 15 minutes; and • 2) diluting the obtained supernatant with water for 3 folds, and analyzing the concentration of compounds to be detected by LC/MS/MS.

NCI-H1693 cells = experiment: USP1 CTG test: NCI-H1693 cell killing experiment; assay type: cell-based; conditions: Homo sapiens, 144 h, 6 days, CTG detection, read-out: IC50 (inhibition of NCI-H1693 cells)
Protocol: Test Example 2 USP1 CTG Test Method
NCI-H1693 cell killing experiment was used to verify the biological activity of USP1i compound in vitro.
NCI-H1693 cells were purchased from ATCC (article number: CRL-5866) and cultured in a cell incubator with 5% CO2 (containing 5% CO2 and 95% air by volume) at 37° C.; 1640 complete medium: comprising 94 wt % RPMI-1640 liquid medium (Gibco, article number: 11875-093), 5 wt % FBS (Gibco, article number: 10099-141), and 1 wt % Pen Strep (Gibco, article number: 15070-063): Fluorescent 384-well plate (Perkin Elmer, article number: 6007279); Trypsin (Gibco, article number: 25200056); CTG Buffer (CellTiter-Glo® 2.0 Cell Viability Assay, Promega, article number: G9241).
[formula] • X: Log10 (compound complex concentration); • Y: corresponding response;
Top and Bottom: corresponding response corresponding to the same unit of Y; and it is noted that: • if X is not the logarithm of dosage, data shall be returned and converted; • if any baseline response is subtracted, the Bottom is set as a constant value of 0.0; and fitting the data to get the IC50 value; • wherein the fitting conditions may be adjusted according to the specific conditions of the data; specifically, Constraint conditions of Bottom, TOP and HillSlope may be adjusted appropriately so as to achieve the curve that is most in line with the actual situation.

[2] = Pharmacokinetic determination in male Beagle dogs; assay type: in vivo; conditions: dog, plasma, IV 0.2 mg/kg
Protocol: Test Example 4 Pharmacokinetic Determination of Compounds of the Present Application in Male Beagle Dogs
Male Beagle dogs were used as test animals. After intravenous injection and oral administration, plasma samples were collected at specific time points. The concentration of the compound in plasma was detected by LC-MS/MS, and the DMPK parameters were calculated to evaluate the pharmacokinetic characteristics of the compound in dog plasma.
Compounds of Table 6 in this application. […] The structural formula of KSQ-4279 is: […]
Male Beagle dogs having a weight of 9 to 13 kg, supplied by Beijing Mars Biotechnology Co., Ltd.
Administration information of the compound in this application: both group IV (intravenous injection group) and group PO (oral administration group) consist of 3 dogs; for group IV, the dosage was 0.2 mg/kg and the administration volume was 0.5 mL/kg; for group PO, the dosage was 3 mg/kg and the administration volume was 3 mL/kg. The administration solvent was 5 vol % DMSO+10 vol % Solutol (Kolliphor HS 15)+85 vol % Saline (physiological saline).
0.5 mL of blood was collected from the head vein in group IV at 0.083, 0.25, 0.5, 1, 2, 4, 8 and 24 hours respectively after administration, and from the head vein in group PO at 0.25, 0.5, 1, 2, 4, 8 and 24 hours respectively after administration. The collected samples were placed in EDTA-K2 test tube; plasma was separated by centrifuging at 2 to 8° C. and 2000 g for 10 minutes, which was then stored at −80° C. until analysis of the samples.
as §1, with “Dog” for “Mice”, “50” for “10”, “seconds,” for “seconds”, “of the” for “of”

[3] = biological target: recombinant human His6-USP1/His6-UAF1 composite protein (Homo sapiens (Human), UniProt O94782); experiment: USP1 enzyme activity detection (Ub-Rho fluorescence); assay type: biochemical; conditions: USP1/UAF1, Ub-Rho substrate 300 nM, 1 hour pre-incubation; read-out: IC50 (enzymatic inhibition of USP1)
Sequence of recombinant human His6-USP1/His6-UAF1 composite protein (O94782 whole entry): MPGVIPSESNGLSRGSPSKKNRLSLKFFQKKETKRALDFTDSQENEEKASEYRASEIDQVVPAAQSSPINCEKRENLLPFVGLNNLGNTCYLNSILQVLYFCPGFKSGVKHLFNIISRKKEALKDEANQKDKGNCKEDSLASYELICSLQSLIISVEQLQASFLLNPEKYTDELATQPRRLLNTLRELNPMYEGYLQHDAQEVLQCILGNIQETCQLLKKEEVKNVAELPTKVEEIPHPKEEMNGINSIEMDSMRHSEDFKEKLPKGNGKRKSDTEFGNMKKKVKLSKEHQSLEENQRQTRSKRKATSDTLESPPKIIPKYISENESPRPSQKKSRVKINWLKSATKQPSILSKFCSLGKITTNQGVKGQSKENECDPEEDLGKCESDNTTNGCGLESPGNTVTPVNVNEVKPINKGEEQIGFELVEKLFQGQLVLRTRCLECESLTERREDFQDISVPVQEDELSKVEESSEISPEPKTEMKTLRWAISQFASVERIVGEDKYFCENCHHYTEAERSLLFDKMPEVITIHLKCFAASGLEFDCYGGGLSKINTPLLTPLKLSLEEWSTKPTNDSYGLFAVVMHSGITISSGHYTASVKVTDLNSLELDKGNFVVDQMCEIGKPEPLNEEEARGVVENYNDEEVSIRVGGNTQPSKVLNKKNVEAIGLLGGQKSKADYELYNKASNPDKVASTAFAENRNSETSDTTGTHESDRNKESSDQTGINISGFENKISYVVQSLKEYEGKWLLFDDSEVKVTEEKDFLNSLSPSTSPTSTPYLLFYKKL
Sequence of recombinant human His6-USP1/His6-UAF1 composite protein (Q8TAF3 whole entry partner): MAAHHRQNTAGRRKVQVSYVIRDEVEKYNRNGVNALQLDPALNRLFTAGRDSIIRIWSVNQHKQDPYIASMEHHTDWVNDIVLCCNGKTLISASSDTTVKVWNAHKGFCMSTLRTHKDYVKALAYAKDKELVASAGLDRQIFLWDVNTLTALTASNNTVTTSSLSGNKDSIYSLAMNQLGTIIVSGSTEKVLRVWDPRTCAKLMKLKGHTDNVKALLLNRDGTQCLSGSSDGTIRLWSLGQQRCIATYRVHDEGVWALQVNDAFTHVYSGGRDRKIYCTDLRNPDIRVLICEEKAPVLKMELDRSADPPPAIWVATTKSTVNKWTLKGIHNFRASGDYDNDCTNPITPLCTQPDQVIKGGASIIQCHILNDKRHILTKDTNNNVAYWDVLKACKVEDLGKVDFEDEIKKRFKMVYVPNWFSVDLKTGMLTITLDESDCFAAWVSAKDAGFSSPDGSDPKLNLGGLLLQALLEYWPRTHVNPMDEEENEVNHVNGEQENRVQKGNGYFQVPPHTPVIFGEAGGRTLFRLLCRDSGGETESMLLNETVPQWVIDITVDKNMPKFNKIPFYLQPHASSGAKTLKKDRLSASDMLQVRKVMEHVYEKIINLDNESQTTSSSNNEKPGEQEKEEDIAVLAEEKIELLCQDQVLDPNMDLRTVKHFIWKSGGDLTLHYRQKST
From the text: USPli compounds were screened by USP1 enzyme activity detection experiment.
1.1 Experimental materials: recombinant human His6-USP1/His6-UAF1 composite protein. (R&D, catalog number E-568-050): Ubiquitin rhodamine 110 (Ub-Rho) (R&D, catalog number U-555-050); Fluorescent 384-well plate (Perkin Elmer, Art. No. 6007279).
1.2 Test sample: Compounds of table 3 in this application, whose structural formulae and preparation methods are shown in the above examples.
Using Equation (I) to fit data in Excel to obtain the inhibition value;
[formula] • wherein, the maximum signal value represents the luminous signal intensity of the positive control hole without adding the compound of the application; the minimum signal value represents the luminous signal intensity of the negative control hole without enzyme; and the target signal value represents the luminous signal intensity of the Test samples; and • fitting the data in XL-Fit with Equation (II) to obtain IC50 value:
[formula] • wherein Y is the inhibition rate, X is the concentration of the compound; Bottom is the lowest inhibition rate; Top is the highest inhibition rate; and HillSlope is the slope.

SMILES | Blood concentration [1] | Curve area [1] | IC50 (NCI-H1693 cells) [nM] | AUC(0-t) [2] [ng·h/mL] | clearance ([2]; read-out: CL (overall clearance rate) (converted)) [mL/min/kg] | IC50 [3] [nM]
COc1ncnc(C2CC2)c1-c1ncc2c(n1)n(Cc1ccc(-c3nc(C(F)(F)F)cn3C)cc1)c1nccn21 [Comparative compound 1, reference compound] | 2246 | 6558 | 53.7 |  |  | 
COc1ncnc(C2CC2)c1-c1ncc2c3cn(C)nc3n(Cc3ccc(-c4nc(C(F)(F)F)cn4C(C)C)cc3)c2n1 [Compound 88, 6-(4-cyclopropyl-6-methoxypyrimidin-5-yl)-8-(4-(1-isopropyl-4-(trifluoromethyl)-1H-imidazol-2-yl)benzyl)-2-methyl-2,8-dihydropyrazolo[4′,3′: 4,5]pyrrolo[2,3-d]pyrimidine] | 4803 | 44062 | 9.2 | 236 | 15 | 4.5
